Test results reported in US20220153732A1, “PROTEIN SECRETION INHIBITORS” (KEZAR LIFE SCIENCES, priority 2019, published 2022).

Key:
Type in all cases: cell-based
[1] = system: TNFα-FL/Gaussia Luciferase; test: Dox Induced TNFα-FL-Gluc Assay; settings: 24 hr, doxycycline-induced, 293FRT/TO cells; read-out: 24 hr Dox Inducible TNFaFLGluc 293FRT/TO: Mean IC50
How it was run: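 Compounds were added in doxycycline-containing DMSO/media to cells plated the previous day and incubated at 37° C under 5% CO2. These cells stably express a TNFα-FL/Gaussia luciferase cDNA whose expression is under T-REx (Dox-inducible) control, selected with Hygromycin and Blasticidin.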

[2] = system: PD1-ss+10aa/Gaussia Luciferase; test: Dox-Induced PD1-ss-Gluc Assay; settings: 24 hr, doxycycline-induced, 293FRT/TO cells; read-out: 24 hr Dox Inducible PD1ssGluc 293FRT/TO: Mean IC50
How it was run: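 Compounds, diluted in DMSO/media with doxycycline, were added to cells plated a day earlier and kept at 37° C under 5% CO2. The cells stably express a Gaussia luciferase construct fused to PD1-ss+10aa, induced via the T-REx system. Unassigned stereochemistry means mixture data.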

[3] = system: IL-2-FL/Gaussia Luciferase; test: Dox Induced IL2-FL-Gluc Assay; settings: 24 hr, doxycycline-induced, 293FRT/TO cells; read-out: 24 hr Dox Inducible IL2FLGIuc 293FRT/TO: Mean IC50
How it was run: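 Compounds were added together with doxycycline in DMSO/media and incubated at 37° C., 5% CO2. The cells were a stably selected line carrying IL-2-FL/Gaussia luciferase under T-REx inducible control. Structures drawn without stereochemistry were tested as stereoisomer mixtures.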

[4] = system: human multiple myeloma cell line U266B1; test: U266 Cell Viability Assay; settings: U-266, 48 hr, U266B1 cells, Celltiter-Glo, read-out: 48 hr U266 Viability Celltiter-Glo: Mean EC50
How it was run: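 Viability measured by CellTiter-Glo luciferase signal after 48 h compound exposure (37 °C, 5% CO2) of U266B1 cells in 384-well format. Where stereochemistry is not shown, data refer to the stereoisomer mixture.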

[5] = system: human multiple myeloma cell line NCI-H929; test: H929 Cell Viability Assay; settings: 48 hr, NCI-H929 cells, Celltiter-Glo, read-out: 48 hr H929 Viability Celltiter-Glo: Mean EC50
Method: Plates were incubated at 37° C., 5% CO2 for 48 hours. After 48 hours, Celltiter-Glo® (Promega) was added to each well and luciferase signal was quantified using Tecan Infinite M1000 Pro for cell viability determination.
For chemical structures that include one or more stereoisomers, but are illustrated without indicating stereochemistry, the assay data refers to a mixture of stereoisomers.

[6] = system: HER3-ss+4aa/Gaussia Luciferase; test: Dox-Induced Her3-ss-Gluc Assay; settings: 24 hr, doxycycline-induced, 293FRT/TO cells; read-out: 24 hr Dox Inducible Her3(ss + 4)Gluc 293FRT/TO: Mean IC50
How it was run: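 Compounds, diluted in DMSO/media containing doxycycline, were incubated at 37° C., 5% CO2 with cells seeded one day earlier. The cells stably express HER3-ss+4aa/Gaussia luciferase under T-REx control. Where no stereochemistry is shown, data refer to the mixture of stereoisomers.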

CC(=O)NCCc1nc(NC(=O)c2cccn2Cc2ccncc2)sc1C [Compound B22, N-(4-(2-acetamidoethyl)-5-methylthiazol-2-yl)-1-(pyridin-4-ylmethyl)-1H-pyrrole-2-carboxamide]
> 25 µM: IC50 [1] | IC50 [2] | IC50 [3] | EC50 [4] | EC50 [5] | IC50 [6]

CC(C)(C)[C@H]1C[C@@H]1NC(=O)c1cccn1Cc1ccncc1 [Compound B23, N-((1S,2R)-2-(tert-butyl)cyclopropyl)-1-(pyridin-4-ylmethyl)-1H-pyrrole-2-carboxamide]
> 25 µM: IC50 [1] | IC50 [2] | IC50 [3] | EC50 [4] | EC50 [5] | IC50 [6]

CCc1nc(NC(=O)[C@H]2CCCN2Cc2ccncc2)sc1C [Compound B24]
> 25 µM: IC50 [1] | IC50 [2] | IC50 [3] | EC50 [4] | EC50 [5] | IC50 [6]

CCc1cc(N(C)C(=O)c2cccn2Cc2ccncc2)ccc1C [Compound B25, N-(3-ethyl-4-methylphenyl)-N-methyl-1-(pyridin-4-ylmethyl)-1H-pyrrole-2-carboxamide]
> 25 µM: IC50 [1] | IC50 [2] | IC50 [3] | EC50 [4] | EC50 [5] | IC50 [6]

CCc1nc(NC(=O)[C@@H]2CCCN2Cc2ccncc2)sc1C [Compound B26, (S)-N-(4-ethyl-5-methylthiazol-2-yl)-1-(pyridin-4-ylmethyl)pyrrolidine-2-carboxamide]
> 25 µM: IC50 [1] | IC50 [2] | IC50 [3] | EC50 [4] | EC50 [5] | IC50 [6]

CC(C)(C)c1csc(NC(=O)c2cccn2Cc2ccccc2)n1 [Compound B27, 1-benzyl-N-(4-(tert-butyl)thiazol-2-yl)-1H-pyrrole-2-carboxamide]
> 25 µM: IC50 [1] | IC50 [2] | IC50 [3] | EC50 [4] | EC50 [5] | IC50 [6]
